Results reported in US20250288536A1, “PROTEIN PARTICLES INCLUDING AN ACTIVE AGENT AND METHODS OF MAKING AND USING THE SAME” (Dairy Mangement Inc., priority 2022, published 2025).
Read-outs that look alike come from different tables or passages of the source.

Assays:
[1] = Particle size by DLS before and after ultrasonication (Example 2); conditions: after ultrasonication
[2] = Scanning electron microscopy (SEM) particle size; conditions: 1 mg/mL dispersion

Molecule	colloidal dispersion stability when adjusting pH to 7 [1]	change of antioxidant activity (ABTS) with HPH treatment (0.01 mg/mL)	ABTS radical scavenging activity (concentration above 0.1 mg/mL)	particle size by SEM (dry state) ([2]; HPH sample) [nm]	particle size by SEM (dry state) ([2]; NOHPH sample) [nm]	change of antioxidant activity (ABTS) with HPH treatment (after vs before HPH)	ABTS radical scavenging activity (concentration of 0.5 mg/mL) [%]
N[C@@H](Cc1c[nH]c2ccccc12)C(=O)O [Trp, tryptophan]	remained stable	increased	around 100%				
α-lactalbumin				~80	~40	increased	20
